{"source": "patent US20130152227A1", "about": "“ENHANCED DISEASE […] INTRODUCTION OF NH3” (priority 2010, published 2013)", "key": {"NH3": {"tested_on": "NH3", "assay": "RT-PCR / real-time qPCR of NH3 after foliar spray", "assay_type": "in vivo, Oryza sativa L", "description": "(§1) To investigate the BTH- and INA-induced responses at the molecular level, we looked at the transcript expression levels of several rice defense-related genes, including PR1a, PR3, PR10, POX (peroxidase), and NH1. RT-PCR results of these genes for response to BTH treatment are shown in FIG. 5a and real-time quantitative PCR results in FIG. 5b. The input cDNA amounts were equalized first by using actin as the reference in FIG. 5a. Quantitative expression data in FIG. 5b are expressed as fold of actin gene expression. As expected, the NH3 levels in the nNT-NH3 plants (filled bar) are elevated by about 3- to 4-fold compared to Kit (open bar) control before treatment. […] Mock treatment appears also has effects on the NH3 levels.\n(§2) For 10 mM BTH treatment, the commercial product Actigard (Syngenta) was first used for foliar spray on the rice plants. Pure BTH chemical […] (Wako) was subsequently used in place of Actigard. One mM of BTH and INA solutions were prepared in 0.05% Tween 20 for foliar spray.\n(§3) Leaf samples were collected and frozen immediately in liquid nitrogen. Leaf samples were stored at −80° C. until use. Total RNA was extracted using the Trizol reagent (Sigma) according to the manufacturer's instruction. RNA was reverse-transcribed using reverse transcriptase Superscript (Invitrogen). Approximately 10 μg of RNA was used for each reverse transcription. RT-PCR was first performed with primers targeting an actin gene as the reference. An equal amount of cDNA input was then used for RT-PCR for NH3 or defense-related genes. RT-PCR for NH3 used primers NH3-RT1 (5′[…]3′; SEQ ID NO:29) and NH3-RT2 (5′[…]3; SEQ ID NO:30). RT-PCR for NTAP-NH3 used primers NH3-2 (5′[…]3; SEQ ID NO:31) and NTAP-5 (5′[…]3; SEQ ID NO:32). RT-PCR for NH1 used primers NH1-RT1 (5′[…]3; SEQ ID NO:33) and NH1-TAP2 (5′[…]3; SEQ ID NO:34). Genes PR1a (Os07g03710) and PR10 (Os12g36830) as markers for plants defense have been described before (Park et al., 2008).\n(§4) Quantitative real time PCR were performed on a Bio-Rad CFX96 Real-Time System coupled to a C1000 Thermal Cycler (Bio-Rad). […]"}, "PR10": {"tested_on": "PR10", "assay": "RT-PCR / real-time qPCR of PR10 after foliar spray", "assay_type": "in vivo, Oryza sativa L", "description": "as §1, §2, §3\nQuantitative real time PCR were performed on a Bio-Rad CFX96 Real-Time System coupled to a C1000 Thermal Cycler (Bio-Rad). For qPCR reactions, the Bio-Rad SsoFast EvaGreen Supermix was used. QPCR primers used are as follows: Actin-Q1 ([…]; SEQ ID NO:35) and Actin-Q2 ([…]; SEQ ID NO:36) for actin gene; NH1-RT3 (CTGATCCGTTTCCCTCGGA; SEQ ID NO:37) and NH1-RT4 ([…]; SEQ ID NO:38) for the NH1 gene; NH3-RT3 ([…]; SEQ ID NO:39) and NH3-RT4 ([…]; SEQ ID NO:40) for the NH3 gene; PR3-1 ([…]; SEQ ID NO:41) and PR3-2 ([…]; SEQ ID NO:42) for the PR3 gene; POX8.1-1 ([…]; SEQ ID NO:43) and POX8.1-2 (CATGGGCTTCCTGATCTG; SEQ ID NO:44) for the POX8.1 gene; and POX22.3-1 (ATCGTGTCGACGACGACAT; SEQ ID NO:45) and POX22.3-2 ([…]; SEQ ID NO:46) for the POX22.3 gene. QPCR reactions were run at 56° C. annealing for 12 sec and 95° C. for 8 sec for 40 cycles."}, "NH1": {"tested_on": "NH1", "assay": "RT-PCR / real-time qPCR of NH1 after foliar spray", "assay_type": "in vivo, Oryza sativa L", "conditions": "1 mM BTH", "description": "as §1, §2, §3, §4"}, "PR3": {"tested_on": "PR3", "assay": "RT-PCR / real-time qPCR of PR3 after foliar spray", "assay_type": "in vivo, Oryza sativa L", "conditions": "for PR3 expression induction: 1 mM BTH", "description": "as §1, §2, §3, §4"}, "[1]": {"tested_on": "peroxidase genes POX8.1 and POX22.3", "assay": "RT-PCR / real-time qPCR of peroxidase genes after foliar spray", "assay_type": "in vivo, Oryza sativa L", "description": "as §1, §2, §3, §4"}, "[2]": {"tested_on": "rice plants (nNT-NH3, NTAP control, Kit)", "conditions": "for lesion mimic spots / bleached areas on leaves: 1 mM foliar spray, one week"}, "PR1a": {"tested_on": "PR1a", "assay": "RT-PCR / real-time qPCR of PR1a after foliar spray", "assay_type": "in vivo, Oryza sativa L", "conditions": "1 mM INA, Kit plants", "description": "as §1, §2\nLeaf samples were collected and frozen immediately in liquid nitrogen. Leaf samples were stored at −80° C. until use. Total RNA was extracted using the Trizol reagent (Sigma) according to the manufacturer's instruction. […]\nas §4"}, "[3]": {"conditions": "1 mM BTH, both Kit and nNT-NH3 plants"}}, "note": "Read-outs that look alike come from different tables or passages of the source."}
{"compound": "c1ccc2snnc2c1", "note": "[BTH, benzothiadiazole]", "values": [{"measurement": "NH3 transcript levels", "setting": "NH3; 1 mM BTH, Kit control plants, especially day 4 and day 8", "value": "slightly reduced"}, {"measurement": "NH3 levels", "setting": "NH3; 1 mM BTH, nNT-NH3 plants", "value": "further modestly induced at day 1"}, {"measurement": "PR10 expression induction", "setting": "PR10; 1 mM BTH, Kit plants", "value": "up to 2 fold"}, {"measurement": "PR10 expression induction over untreated Kit", "setting": "PR10; 1 mM BTH, nNT-NH3 plants", "value": "≤ 12", "unit": "fold"}, {"measurement": "PR10 expression induction over untreated nNT-NH3", "setting": "PR10; 1 mM BTH, nNT-NH3 plants", "value": "up to 51 fold"}, {"measurement": "NH1 expression levels", "setting": "NH1; Kit plants", "value": "relatively unchanged"}, {"measurement": "NH1 level induction compared to untreated Kit", "setting": "NH1; nNT-NH3 plants, one day after treatment", "value": 2, "unit": "fold"}, {"measurement": "NH1 level induction", "setting": "NH1; nNT-NH3 plants, one day after treatment, vs untreated nNT-NH3", "value": "about 3.5 fold"}, {"measurement": "PR3 expression induction", "setting": "PR3; Kit plants", "value": "up to 2 fold"}, {"measurement": "PR3 expression induction", "setting": "PR3; nNT-NH3 plants", "value": "up to 10 fold"}, {"measurement": "POX8.1 expression", "setting": "[1]; [3]", "value": "significantly induces"}, {"measurement": "POX22.3 expression", "setting": "[1]; [3]", "value": "significantly induces"}, {"measurement": "lesion mimic spots / bleached areas on leaves", "setting": "[2]; Kit control plants", "value": "developed no lesion mimic spots at all"}, {"measurement": "cell death phenotype", "setting": "[2]; 10 mM foliar spray, NTAP control plants (Ubi-1 promoter)", "value": "completely clear of such cell death phenotype"}, {"measurement": "time to dry-out of whole leaves", "setting": "[2]; 10 mM foliar spray, nNT-NH3 plants", "value": "3 to 4", "unit": "days"}]}
{"compound": "O=C(O)c1cc(Cl)nc(Cl)c1", "note": "[INA, 2,6-dichloroisonicotinic acid]", "values": [{"measurement": "levels of NH3 expression", "setting": "NH3; 1 mM INA", "value": "slightly reduces"}, {"measurement": "PR10 expression", "setting": "PR10; 1 mM INA, Kit plants", "value": "slightly induces"}, {"measurement": "PR3 expression", "setting": "PR3; 1 mM INA, Kit plants", "value": "slightly induces"}, {"measurement": "POX expression", "setting": "[1]; 1 mM INA, Kit and nNT-NH3 plants", "value": "induces"}, {"measurement": "lesion mimic spots / bleached areas on leaves", "setting": "[2]; Kit control plants", "value": "little effects"}, {"measurement": "lesion mimic spots / bleached areas on leaves", "setting": "[2]; nNT-NH3 plants", "value": "developed typical lesion-mimic spots, but no bleached areas on leaves"}, {"measurement": "PR1a expression", "setting": "PR1a", "value": "slightly induces"}]}
